Assay results published in patent publication EP2062578A1, “Novel use of chemical compounds for the treatment of AIDS” (priority 2007, dated 2009).
Entries after “also recorded” stand apart in the source; their conditions may differ.

Columns and labels:
[1] = target: T1, Nef57-205 (Human immunodeficiency virus type 1 group M subtype B, UniProt P03406); experiment: Isothermal Titration Calorimetry (ITC) binding to Nef57-205; design: species or system HIV-1; conditions: for ΔH: enthalpy variation; for ΔH / TΔS / ΔG / N: ITC at 25 °C; for TΔS: entropy variation; for ΔG: free enthalpy variation; for N: stoichiometry, Compound X in 20 mM Hepes pH 7.0, Compound Y in 20 mM Na-phosphate pH 8.0, 100 mM NaCl, 5% DMSO
T1 construct: Purified Nef57-205, as described in Arold et al, Structure 1997 5(10) p 1361); made in house
Experimental: Isothermal titration calorimetry (ITC) is used to investigate in vitro the binding affinity and thermodynamic parameters of the inhibitory molecules.
Purified Nef57-205, as described in Arold et al, Structure 1997 5(10) p 1361) was extensively dialyzed in degassed ITC buffer (20 mM Hepes pH 7.0, 100 mM NaCl, 5% DMSO), except for binding experiments with Compound Y, where 20 mM Na-phosphate pH 8.0, 100 mM NaCl, 5% DMSO was used as buffer. Synthetic inhibitors were first dissolved at 10 mM in 100% DMSO, and then diluted to 300 - 400 µM in ITC buffer with DMSO concentration adjusted to 5%. Inhibitors were injected from the 300 µL syringe into the 1.4 mL sample cell containing 15-25 µM Nef57-205. ITC titrations were performed at 25 °C, using 10 - 15 µl injections every 300 secondes. All inhibitors were also titrated into ITC buffer alone, and the resulting heat of dilution was subtracted from the experimental curves. ITC was performed with a VP ITC MicroCalorimeter from MicroCal Inc., and data were fitted with Microcal Origin™ software. The results are summarized in Table I and illustrated in Figure 1.

[2] = test system: Nef-mediated MHC-I down-regulation; experiment: MHC-I down-regulation by Nef in Nef-GFP transfected human PBMC (flow cytometry); type: cell-based; conditions: 25µM or 10µM for 3 hr, compared with 5µM LY294002 as control
Experimental: (§1) Nef advances the endocytosis and degradation of […] surface proteins, including CD4 and MHC proteins (Schwartz et al., 1996, Nature Medecine 2:338-342). Consequently, some compounds of the instant invention were tested for their ability to prevent their degradations by interacting with Nef. Human peripheral blood mononuclear cells (PBMC) from healthy volunteers were purified by Ficoll gradient centrifugation ( Lymphoprep™, Axis-shield). Washed, isolated PBMC were transiently transfected using the nucleofection technology (human T cell Nucleofector™ kit, 5.10^6 cells, 5µg plasmid DNA Nef-GFP or GFP (Nucleofactor Program V-024™, Amaxa Biosystems)). The same Nef sequence as described above in example 1 was cloned in pEGFP-N3 (Clonetech). […]
(§2) At 45 hr post transfection cells were treated with 25 µM of Compound X or 0.5% DMSO (control) for 3 hrs. Cells were then incubated with human anti-CD4+-PE or human anti-HLA-ABC (MHC-I) and analyzed by flow cytometry. Flow Cytometric Analysis were performed as follows: Cells were washed and resuspended in fluorescence-activated cell sorter (FACS) medium (PBS 2% FCS 0.02% NaN3, pH 7.2). […] Cells were washed and analyzed on FACS scan using Flow Jo software™ (Beckman Coulter for 20100326 and BD Pharmingen for 551497).
(§3) Viable CD4+ T cells were analyzed for GFP and anti-CD4+ (panel A, figure 2) or GFP and anti-HLA-ABC (panel B, figure 2) staining. […]

[3] = test system: Nef-mediated CD4 down-regulation; experiment: CD4 down-regulation by Nef in Nef-GFP transfected human PBMC (flow cytometry); type: cell-based; conditions: 25µM or 10µM for 3 hr
Experimental: as §1, §2, §3

CC(C)(C)c1ccc(OCC(=O)Nc2cccc(C(=O)O)c2)cc1 [Compound Y, 3-{[(4-tert-butylphenoxy)acetyl]amino}benzoic acid]
Kd [1]: 980 ± 300 nM
ΔH [1]: -3.2 ± 0.20 kJ/mol
TΔS [1]: 31.0 kJ/mol
ΔG [1]: -34.2 kJ/mol
N [1]: 1.14 ± 0.1

CC(C)(C)c1ccc(OC(=O)Nc2ccc(O)c(C(=O)O)c2)cc1 [Compound X, 2-hydroxy-5-[(4-tert-butylphenoxy)carbonylamino]benzoic acid]
Kd [1]: 1800 ± 850 nM
ΔH [1]: -4.0 ± 0.4 kJ/mol
TΔS [1]: 28.8 kJ/mol
ΔG [1]: -32.8 kJ/mol
N [1]: 0.83 ± 0.06
Nef-mediated MHC-I down-regulation [2]: reduce in a dose-dependent manner; also recorded: partially blocked
Nef-mediated CD4 down-regulation [3]: not
